Structures can show the parent of a compound that is named as a salt.
Molecular target: IDO1 (Homo sapiens, UniProt P14902)
Assay: IDO1 Human Whole Blood Assay
Assay type: cell-based
Details: LPS and IFNγ 100 ng/mL, 18 h, kynurenine by LC/MS/MS, read-out: Human Whole Blood Potency, IC50
Protocol: IDO1 Human Whole Blood Assay
Compounds to be tested were serially diluted in ten 3-fold steps in DMSO starting from 10 mM. […] LPS and IFNγ was prepared in RPMI to a 10× of final conc. (1000 ng/mL), final concentration is 100 ng/mL.
240 μL of blood was transferred to each of the wells of a v-bottom 96 well plate. 30 μL of compound was transferred from intermediate dilution plate, and incubated for 15 min. 30 μL from stimulants was then transferred to blood and mixed thoroughly. Plate was covered with breathable membrane and incubated at 37° C. for overnight (18 h).
On day 2 isotope labeled standard of kynurenine and tryptophan was made in water at 10× concentration and 30 μL was added to the blood at 3 μM final concentration. The assay plates were centrifuged at 300×G for 10 min with no brake to separate plasma from red blood cells. 60 μL of plasma samples was removed without disturbing red blood cells. Plasma was diluted with RPMI in 1:1 ratio and proteins were precipitated out with two volume of
Acetonitrile. The plates were centrifuged at 4000×G for 60 min. 20 μL of supernatant was carefully transferred to a 384 well plate contain 40 μL of 0.1% formic acid in water and analyzed by LC/MS/MS.
LC/MS/MS analyses were performed using Thermo Fisher's LX4-TSQ Quantum Ultra system. This system consists of four Agilent binary high-performance liquid chromatography (HPLC) pumps and a TSQ Quantum Ultra triple quadrupole MS/MS instrument. For each sample, 5 μL were injected onto an Atlantis T3 column (2.1 mm×150 mm, 3 μm particle size) from Waters. The mobile phase gradient pumped at 0.8 mL/min was used to elute the analytes from the column at 25° C. […] Mobile phase A consisted of 0.1% formic acid in water. Mobile phase B consisted of 0.1% of formic acid in acetonitrile. Data was acquired in positive mode using a HESI interface. The operational parameters for the TSQ Quantum Ultra instrument were a spray voltage of 4000 V, capillary temperature of 380° C., vaporizer temperature 400° C., shealth gas 60 arbitrary units, Aux gas 20 arbitrary units, tube lens 85 and collision gas 1.2 mTorr. SRM chromatograms of kynurenine (Q1: 209.2>Q3:94.0) and internal standard (Q1: 215.3>Q3:98.2) were collected for 90 sec. The peak area was integrated by Xcalibur Quan software. The ratios between the kynurenine generated in the reaction and 2D6-Kynurenine spiked-in internal standard were used to generate percentage inhibition and IC50 values. Compounds were titrated and IC50's were calculated by 4 parameter sigmoidal curve fitting formula.
The biological activity data of selective compounds using the IDO1 human whole blood assay described above are summarized in the table below.

Chain of IDO1 (P14902 whole entry): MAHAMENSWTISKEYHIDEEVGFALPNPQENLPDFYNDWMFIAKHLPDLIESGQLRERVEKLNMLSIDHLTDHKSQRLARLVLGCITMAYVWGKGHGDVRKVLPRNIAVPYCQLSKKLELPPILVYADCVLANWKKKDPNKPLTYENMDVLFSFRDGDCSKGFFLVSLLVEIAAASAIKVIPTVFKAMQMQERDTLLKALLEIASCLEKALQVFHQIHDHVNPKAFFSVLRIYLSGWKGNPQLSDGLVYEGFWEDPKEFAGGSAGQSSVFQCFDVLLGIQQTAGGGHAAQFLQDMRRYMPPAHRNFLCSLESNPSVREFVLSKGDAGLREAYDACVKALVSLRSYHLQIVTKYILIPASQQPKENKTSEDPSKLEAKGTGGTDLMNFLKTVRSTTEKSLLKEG

IC50 [nM] | Compound
922 | O=C(NC1(c2ccc(-c3cnc(OC4CC4)cc3CO)cc2)CC1)c1ccc(F)cc1 [Example 48, N-(1-(4-(6-cyclopropoxy-4-(hydroxymethyl)pyridin-3-yl)phenyl)cyclopropyl)-4-fluorobenzamide]
361 | CC1CC1(NC(=O)c1ccc(F)cc1)c1ccc(-c2cnc(C(F)(F)F)cc2C(C)(C)O)nc1 (single isomer, unassigned) [Example 56, 4-fluoro-N-(1-(4′-(2-hydroxypropan-2-yl)-6′-(trifluoromethyl)-[2,3′-bipyridin]-5-yl)-2-methylcyclopropyl)benzamide]
152 | CC(C)(O)c1cc(C(F)(F)F)ncc1-c1ccc(C2(NC(=O)c3ccc(F)cc3)CCC2)cc1 [Example 52, 4-fluoro-N-(1-(4-(4-(2-hydroxypropan-2-yl)-6-(trifluoromethyl)pyridin-3-yl)phenyl)cyclobutyl)benzamide]
210 | CC1CC1(NC(=O)c1ccc(F)cc1)c1ccc(-c2cnc(C(F)(F)F)cc2C(C)(C)O)nc1 (single isomer, unassigned) [Example 60]
703 | O=C(NC1(c2ccc(-c3cnc(C(F)(F)F)cc3CO)cc2)CC1)c1ccc(Cl)cc1 [Example 46, 4-chloro-N-(1-(4-(4-(hydroxymethyl)-6-(trifluoromethyl)pyridin-3-yl)phenyl)cyclopropyl)benzamide]
398 | Cc1cc(C2CC2)ncc1-c1ccc(C2(NC(=O)c3ccc(C#N)cc3)CCC2)cc1F [Example 7, 4-Cyano-N-(1-(4-(6-cyclopropyl-4-methylpyridin-3-yl)-3-fluorophenyl)cyclobutyl)benzamide]
1000 | O=C(NC1(c2ccc(-c3cnc(C(F)(F)F)cc3CO)cc2)CCC1)c1ccc(F)cc1 [Example 53]
186 | C[C@H](O)c1cc(C(F)(F)F)ncc1-c1ccc(C2(NC(=O)c3ccc(F)cc3)CC2)cc1 [Example 50, (S)-4-fluoro-N-(1-(4-(4-(1-hydroxyethyl)-6-(trifluoromethyl)pyridin-3-yl)phenyl)cyclopropyl)benzamide]
246 | Cc1cc(C2CC2)ncc1-c1ccc(C2(NC(=O)c3ccc(C#N)cc3)CCC2)cc1 [Example 12, 4-cyano-N-(1-(4-(6-cyclopropyl-4-methylpyridin-3-yl)phenyl)cyclobutyl)benzamide]
392 | Cc1cc(C2CC2)ncc1-c1ccc(C2(NC(=O)c3ccc(C#N)cc3)CCC2)nc1 [Example 42, 4-Cyano-N-(1-(6′-cyclopropyl-4′-methyl-[3,3′-bipyridin]-6-yl)cyclobutyl)benzamide]
587 | N#Cc1ccc(C(=O)NC2(c3ccc(-c4ccc(C5CC5)nc4CO)cc3)CCC2)cc1 [Example 25, 4-cyano-N-(1-(4-(6-cyclopropyl-2-(hydroxymethyl)pyridin-3-yl)phenyl)cyclobutyl)benzamide]
579 | CC(C)Oc1cc(CO)c(-c2ccc(C3(NC(=O)c4ccc(F)cc4)CC3)cc2)cn1 [Example 49, 4-fluoro-N-(1-(4-(4-(hydroxymethyl)-6-isopropoxypyridin-3-yl)phenyl)cyclopropyl)benzamide]
1070 | N#Cc1ccc(C(=O)NC2(c3ccc(-c4cnc(C(F)(F)F)cc4CO)cc3)CCC2)cc1 [Example 35, 4-cyano-N-(1-(4-(4-(hydroxymethyl)-6-(trifluoromethyl)pyridin-3-yl)phenyl)cyclobutyl)benzamide]
336 | CC(C)(O)c1cc(OC2CC2)ncc1-c1ccc(C2(NC(=O)c3ccc(F)cc3)CCC2)cc1 [Example 54, N-(1-(4-(6-cyclopropoxy-4-(2-hydroxypropan-2-yl)pyridin-3-yl)phenyl)cyclobutyl)-4-fluorobenzamide]
308 | COc1cc(C)c(-c2ccc(C3(NC(=O)c4ccc(C#N)cc4)CCC3)cc2)c(C)n1 [Example 36, 4-cyano-N-(1-(4-(6-methoxy-2,4-dimethylpyridin-3-yl)phenyl)cyclobutyl)benzamide]
284 | CC1CC1(NC(=O)c1ccc(F)cc1)c1ccc(-c2cnc(C(F)(F)F)cc2C(C)(C)O)nc1 (single isomer, unassigned) [Example 58]
233 | C[C@@H](O)c1cc(C(F)(F)F)ncc1-c1ccc(C2(NC(=O)c3ccc(F)cc3)CC2)cc1 [Example 51, (R)-4-fluoro-N-(1-(4-(4-(1-hydroxyethyl)-6-(trifluoromethyl)pyridin-3-yl)phenyl)cyclopropyl)benzamide, 2,2,2-trifluoroacetate salt]
127 | CC(C)(O)c1cc(OC2CC2)ncc1-c1ccc(C2(NC(=O)c3ccc(F)cc3)CC2)cc1 [Example 47, N-(1-(4-(6-cyclopropoxy-4-(2-hydroxypropan-2-yl)pyridin-3-yl)phenyl)cyclopropyl)-4-fluorobenzamide]
171 | CC1CC1(NC(=O)c1ccc(F)cc1)c1ccc(-c2cnc(C(F)(F)F)cc2C(C)(C)O)nc1 (single isomer, unassigned) [Example 59]

Source: patent US11498904B2, “Substituted biaryl compounds as indoleamine 2,3-dioxygenase (IDO) inhibitors” (MERCK SHARP & DOHME CORP., priority 2017, dated 2022)
